Measurements: patent US20220315554A1, “COMPOUNDS COMPRISING A […] LIGAND AND USE THEREOF” (priority 2019, published 2022)
Numbered stars: 1 amine (or outer) side, 2 acyl side, 3 side chain; on linkers, the order of the positions; unused ones are H or OH. Bridge positions count the residues as written; N and C are the ends. Peptide text beside a SMILES is read from it. mXylylene = c1cc(C[*:1])cc(C[*:2])c1

What was measured:
[1] = molecular target: T1, FAP-expressing human WI-38 fibroblasts (Homo sapiens, UniProt Q12884); assay: Competitive FACS binding assay; conditions: competition with 3 nM Cy5-labeled compound, 4° C., 1 hour; for IC50: pIC50 Category (FACS)
T1 construct: FAP-expressing human WI-38 fibroblasts (ECACC) were cultured in EMEM; host or cells: WI-38 human fibroblasts
T1 sequence (Q12884 1-760): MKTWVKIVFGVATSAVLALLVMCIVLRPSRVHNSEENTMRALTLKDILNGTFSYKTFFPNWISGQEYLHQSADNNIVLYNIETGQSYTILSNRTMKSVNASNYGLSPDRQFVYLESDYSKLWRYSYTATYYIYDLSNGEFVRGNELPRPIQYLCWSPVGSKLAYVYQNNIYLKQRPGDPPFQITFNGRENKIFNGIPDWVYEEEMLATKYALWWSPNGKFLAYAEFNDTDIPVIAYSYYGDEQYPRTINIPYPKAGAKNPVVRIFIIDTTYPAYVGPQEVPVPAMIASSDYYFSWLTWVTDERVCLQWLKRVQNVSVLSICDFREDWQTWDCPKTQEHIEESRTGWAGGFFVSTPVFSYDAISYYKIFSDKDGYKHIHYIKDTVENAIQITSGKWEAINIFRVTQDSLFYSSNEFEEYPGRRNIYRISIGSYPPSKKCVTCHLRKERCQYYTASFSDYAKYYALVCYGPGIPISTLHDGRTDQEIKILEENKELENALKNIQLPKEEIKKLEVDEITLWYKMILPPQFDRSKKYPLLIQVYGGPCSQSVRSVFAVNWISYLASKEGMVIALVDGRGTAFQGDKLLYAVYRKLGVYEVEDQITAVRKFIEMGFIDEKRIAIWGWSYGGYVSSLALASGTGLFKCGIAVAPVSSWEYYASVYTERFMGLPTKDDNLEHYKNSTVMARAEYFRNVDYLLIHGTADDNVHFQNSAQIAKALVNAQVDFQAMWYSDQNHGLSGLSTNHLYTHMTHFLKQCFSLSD
Protocol: Cells were analyzed in an Attune NxT flow cytometer. […]

[2] = molecular target: T2, Human recombinant FAP (Homo sapiens, UniProt Q12884); assay: FRET-based FAP protease activity assay; format: biochemical; set-up: purchased R&D systems 3715-SE; conditions: pIC50 Category (Activity), FRET substrate, 37° C.
T2 sequence (Q12884 1-760): T1 sequence (Q12884 1-760)

| Compound | IC50 [1] [nM] | IC50 [2] [nM] | pIC50 Category (FACS) [1] | IC50 ([1]; WI-38 fibroblasts) [nM] | IC50 ([2]; recombinant human FAP) [nM] |
| --- | --- | --- | --- | --- | --- |
| CCCCCC(=O)N[C@H]1CSCc2cc(CSCCNC(=O)CCC(=O)NCCCOCCOCCOCCCNC(=O)c3ccc(NN)nc3)cc(c2)CSC[C@@H](C(=O)O)NC(=O)[C@H](Cc2ccccc2)NC(=O)[C@H](CCC(N)=O)NC(=O)[C@H]([C@@H](C)O)NC(=O)[C@@H]2CCCN2C(=O)[C@@H]2CCCN2C1=O [3BP-4376, Hex-[Cys-(tMeBn(H-HYNIC-Ttds-AET))-Pro-Pro-Thr-Gln-Phe-Cys]-OH] | < 10 | < 10 |  |  |  |
| CCCCCC(=O)N[C@H]1CSCc2cc(CSCCNC(=O)CN3CCN(CC(=O)O)CCN(CC(=O)O)CCN(CC(=O)O)CC3)cc(c2)CSC[C@H](C(=O)O)NC(=O)[C@H](Cc2ccccc2)NC(=O)[C@H](CCC(N)=O)NC(=O)[C@H]([C@@H](C)O)NC(=O)[C@@H]2CCCN2C(=O)[C@@H]2CCCN2C1=O [3BP-4111, Hex-[Cys-(tMeBn(DOTA-AET))-Pro-Pro-Thr-Gln-Phe-D-Cys]-OH] | 10 to 79.4 | 10 to 79.4 |  |  |  |
| CCCCCC(=O)N[C@H]1CSCc2cc(cc(CN3CCN(C(=O)CN4CCN5CCN6CCN(CC4)CC(=O)[O][Eu]([O]C(=O)C6)[O]C(=O)C5)CC3)c2)CSC[C@@H](C(=O)N[C@@H](CC(=O)O)C(N)=O)NC(=O)[C@H](Cc2ccccc2)NC(=O)[C@H](CCC(N)=O)NC(=O)[C@H]([C@@H](C)O)NC(=O)[C@@H]2CCCN2C(=O)[C@@H]2CCCN2C1 [3BP-3661, Europium-Complex of Hex-[Cys(tMeBn(DOTA-PP))-Pro-Pro-Thr-Gln-Phe-Cys]-Asp-NH2] | < 10 | < 10 |  |  |  |
| CCCCCS(=O)(=O)N[C@H]1CSCc2cc(CSCCNC(=O)CN3CCN(CC(=O)O)CCN(CC(=O)O)CCN(CC(=O)O)CC3)cc(c2)CSC[C@@H](C(=O)O)NC(=O)[C@H](Cc2ccccc2)NC(=O)[C@H](CCC(N)=O)NC(=O)[C@H]([C@@H](C)O)NC(=O)[C@@H]2CCCN2C(=O)[C@@H]2CCCN2C1=O [3BP-3691, Pentyl-SO2-[Cys(tMeBn(DOTA-AET))-Pro-Pro-Thr-Glu-Phe-Cys]-OH] |  | 10 to 79.4 | A (pIC50 values >8.0) |  |  |
| CSCC[C@H](NC(C)=O)C(=O)N[C@H]1CSCc2cccc(c2)CSC[C@@H](C(=O)N[C@@H](CC(=O)O)C(=O)N[C@@H](C)C(=O)N[C@@H](Cc2ccccc2)C(=O)N[C@@H](CCCNC(=N)N)C(=O)N[C@@H](CC(=O)O)C(N)=O)NC(=O)[C@H](Cc2ccccc2)NC(=O)[C@H](CCC(=O)O)NC(=O)[C@H]([C@@H](C)O)NC(=O)[C@@H]2CCCN2C(=O)[C@@H]2CCCN2C1=O [3BP-3195, Ac-Met-[Cys(3MeBn)-Pro-Pro-Thr-Glu-Phe-Cys]-Asp-Ala-Phe-Arg-Asp-NH2] (Ac-MCPPTEFCDAFRD-NH2; linker 2-8 via mXylylene) |  |  |  | < 10 | 10 to 79.4 |
| CCCCCC(=O)N[C@H]1CSCc2cc(CSCCNC(=O)CN3CCN4CCN(CC(=O)O)CCN(CC3)CC(=O)[O][Zn][O]C(=O)C4)cc(c2)CSC[C@@H](C(=O)O)NC(=O)[C@H](Cc2ccccc2)NC(=O)[C@H](CCC(N)=O)NC(=O)[C@H]([C@@H](C)O)NC(=O)[C@@H]2CCCN2C(=O)[C@@H]2CCCN2C1 [3BP-4343, Zink-Complex of Hex-[Cys(tMeBn(DOTA-AET))-Pro-Pro-Thr-Gln-Phe-Cys]-OH] | < 10 | < 10 |  |  |  |
| CCCCCC(=O)N[C@H]1CSCc2cc(CSCCNC(=O)[C@H](CO)NC(=O)[C@H](CO)NC(=O)[C@H](CO)NC(=O)CS)cc(c2)CSC[C@@H](C(=O)O)NC(=O)[C@H](Cc2ccccc2)NC(=O)[C@H](CCC(N)=O)NC(=O)[C@H]([C@@H](C)O)NC(=O)[C@@H]2CCCN2C(=O)[C@@H]2CCCN2C1=O [3BP-4301, Hex-[Cys-(tMeBn(H-SAc-Ser-Ser-Ser-AET))-Pro-Pro-Thr-Gln-Phe-Cys]-OH] | 10 to 79.4 | 10 to 79.4 |  |  |  |
| CCCCCC(=O)N[C@H]1CSCc2cc(CSCCN)cc(c2)CSC[C@@H](C(=O)O)NC(=O)[C@H](Cc2ccccc2)NC(=O)[C@H](CCC(N)=O)NC(=O)[C@H]([C@@H](C)O)NC(=O)[C@@H]2CCCN2C(=O)[C@@H]2CCCN2C1=O [3BP-4089, Hex-[Cys(tMeBn(H-AET))-Pro-Pro-Thr-Gln-Phe-Cys]-OH] | 100 to 794 | 10 to 79.4 |  |  |  |
